Legend:
Assay type in all cases: in vivo
Kochia (Kochia scoparia) [1] = assay: Test A postemergence; settings: Bassia scoparia, post-emergence, 240 h, postemergence, read-out: Kochia plant response rating
In short: (§1)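 Ratings of 0 (no effect) to 100 (complete control) come from visual comparison with untreated controls roughly 10 d after treatment. Test chemicals, formulated in a non-phytotoxic solvent mixture with surfactant, were applied either as a preemergence directed soil spray on seeded soil or postemergence to one- to two-leaf plants 2 to 10 cm tall.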

[2] = test system: wheat (Triticum aestivum); assay: Test A postemergence; settings: Triticum aestivum, post-emergence, 240 h, postemergence, read-out: Wheat plant response rating
In short: as §1

corn (Zea mays) = assay: Test A postemergence; settings: Zea mays, post-emergence, 240 h, postemergence, read-out: Corn plant response rating
In short: as §1

[3] = test system: ryegrass, Italian (Italian ryegrass, Lolium multiflorum); assay: Test A postemergence; settings: Lolium multiflorum, post-emergence, 240 h, postemergence, read-out: Ryegrass, Italian plant response rating
In short: as §1

[4] = test system: giant foxtail (Setaria faberii); assay: Test A postemergence; settings: Setaria faberi, post-emergence, 240 h, postemergence, read-out: Foxtail, Giant plant response rating
In short: as §1

[5] = test system: ragweed (common ragweed, Ambrosia elatior); assay: Test A postemergence; settings: Ambrosia artemisiifolia, post-emergence, 240 h, postemergence, read-out: Ragweed plant response rating
In short: as §1

[6] = test system: blackgrass (Alopecurus myosuroides); assay: Test A postemergence; settings: Alopecurus myosuroides, post-emergence, 240 h, postemergence, read-out: Blackgrass plant response rating
In short: as §1

[7] = test system: barnyardgrass (Echinochloa crus-galli); assay: Test A postemergence; settings: Echinochloa crus-galli, post-emergence, 240 h, postemergence, read-out: Barnyardgrass plant response rating
In short: as §1

[8] = test system: Galium (catchweed bedstraw, Galium aparine); assay: Test A postemergence; settings: Galium, post-emergence, 240 h, postemergence, read-out: Galium plant response rating
In short: as §1

Kochia (Kochia scoparia) [9] = assay: Test A preemergence; settings: Bassia scoparia, pre-emergence, 240 h, preemergence, read-out: Kochia plant response rating
In short: as §1

[10] = test system: ryegrass, Italian (Italian ryegrass, Lolium multiflorum); assay: Test A preemergence; settings: Lolium multiflorum, pre-emergence, 240 h, preemergence, read-out: Ryegrass, Italian plant response rating
In short: as §1

[11] = test system: giant foxtail (Setaria faberii); assay: Test A preemergence; settings: Setaria faberi, pre-emergence, 240 h, preemergence, read-out: Foxtail, Giant plant response rating
In short: as §1

[12] = test system: ragweed (common ragweed, Ambrosia elatior); assay: Test A preemergence; settings: Ambrosia artemisiifolia, pre-emergence, 240 h, preemergence, read-out: Ragweed plant response rating
In short: as §1

[13] = test system: barnyardgrass (Echinochloa crus-galli); assay: Test A preemergence; settings: Echinochloa crus-galli, pre-emergence, 240 h, preemergence, read-out: Barnyardgrass plant response rating
In short: as §1

[14] = test system: pigweed (Amaranthus retroflexus); assay: Test A preemergence; settings: Amaranthus retroflexus, pre-emergence, 240 h, preemergence, read-out: Pigweed plant response rating
[15] = 125 g ai/ha, visual injury on 0 to 100 scale (0 no effect, 100 complete control), approx. 10 d
[16] = 500 g ai/ha, 0 to 100 scale, 0 is no effect, 100 is complete control
[17] = 125 g ai/ha, 0 to 100 scale where 0 is no effect and 100 is complete control, approx. 10 d
[18] = 500 g ai/ha, visual injury rating about 10 d after treatment, 0 to 100 scale (0 no effect, 100 complete control)

Cc1cc([C@H]2CN(C)C(=O)[C@@H]2C(=O)Nc2ccc(F)c(F)c2F)ccc1Br [Compound 1101]
pest or weed control at 125 g/ha (Kochia (Kochia scoparia) [1]; [15]): 30%
pest or weed control at 500 g/ha (Kochia (Kochia scoparia) [1]; [16]): 60%
plant injury at 125 g/ha [2, 15]: 0%
plant injury at 500 g/ha [2, 16]: 50%
plant injury at 125 g/ha (corn (Zea mays); [15]): 30%
plant injury at 500 g/ha (corn (Zea mays); [16]): 70%
pest or weed control at 125 g/ha [3, 15]: 20%
pest or weed control at 500 g/ha [3, 16]: 60%
pest or weed control at 125 g/ha [4, 15]: 70%
pest or weed control at 500 g/ha [4, 16]: 80%
pest or weed control at 125 g/ha [5, 15]: 0%
pest or weed control at 500 g/ha [5, 16]: 0%
pest or weed control at 125 g/ha [6, 15]: 0%
pest or weed control at 500 g/ha [6, 16]: 30%
pest or weed control at 125 g/ha [7, 15]: 70%
pest or weed control at 500 g/ha [7, 16]: 80%
pest or weed control at 125 g/ha [8, 15]: 50%
pest or weed control at 500 g/ha [8, 16]: 60%
pest or weed control at 125 g/ha (Kochia (Kochia scoparia) [9]; [17]): 60%
pest or weed control at 500 g/ha (Kochia (Kochia scoparia) [9]; [18]): 70%
pest or weed control at 125 g/ha [10, 17]: 30%
pest or weed control at 500 g/ha [10, 18]: 70%
pest or weed control at 125 g/ha [11, 17]: 90%
pest or weed control at 500 g/ha [11, 18]: 90%
pest or weed control at 125 g/ha [12, 17]: 0%
pest or weed control at 500 g/ha [12, 18]: 40%
pest or weed control at 125 g/ha [13, 17]: 90%
pest or weed control at 500 g/ha [13, 18]: 90%
pest or weed control at 125 g/ha [14, 17]: 0%
pest or weed control at 500 g/ha [14, 18]: 20%

— patent US12077503B2, “Substituted cyclic amides and their use as herbicides” (FMC CORPORATION, priority 2015, dated 2024)
